US20180077929A1, “METHODS AND SYSTEMS FOR TREATING MEDICAL DEVICES AND FLUIDS” (priority 2016, published 2018)
“And” between values parts separate entries of the source, which are not always exact repeats. Equal values may be shown once.

Legend:
Format in all cases: biochemical
[1] = Wound dressing (fibrin pad) testing in cyclohexane containing CaSt; conditions: dressing spiked with 8.9 EU, 15 minutes in 10 mL cyclohexane with 0.1 g CaSt
Description: A wound dressing containing dry fibrinogen and dry thrombin on an absorbable support was tested as follows. The pad was spiked with LPS and then exposed to cyclohexane containing CaSt to determine the effect on detectable LPS.
Three 1×2 inch pieces of the dressing were spiked with endotoxin resulting in 8.9 EU of LPS. The pieces were allowed to dry for 20 minutes, then placed into 50 mL polypropylene conical tubes. 7.5 mL of LAL reagent water+2.5 mL 0.25M tris buffer was added to Tube 1. 10 mL of cyclohexane with 0.1 g of CaSt was added to Tube 2. 10 mL of cyclohexane was added to Tube 3. The tubes were closed and then placed on the bottle roller rotator machine for 15 minutes so that the tube could continuously roll and the dressing was constantly in contact with liquid.
Tube 1 solution was then diluted and tested for endotoxin on the MCS system. The fibrin pad pieces from Tube 2 and Tube 3 were removed and placed in new tubes and extracted in 7.5 mL of LAL reagent water+2.5 mL 0.25M tris buffer. The solutions were then tested on the MCS system for endotoxin (LPS).

[2] = Effect of storage (dwell time) on efficacy of pre-mixed CaSt suspensions; conditions: 15 minutes
Description: Efficacy of pre-mixed CaSt suspensions (sonicated and vortexed) was tested, comparing efficacy of immediately prepared suspensions with suspensions having shelf life or dwell time of 90 min, 5 days, and 1 month prior to contact with endotoxin containing solutions.
10 mL SRW was then introduced to the sonicated CaSt mixture. It was then vortexed for 5 seconds to fully incorporate the sonicated CaSt. The mixture was then tested after 15 minutes of interaction to measure the percent decrease of endotoxin.
10 mL SRW was then introduced to the vortexed CaSt mixture. It was then vortexed for 5 seconds to fully incorporate the sonicated CaSt. The mixture was then tested after 15 minutes of interaction to measure the percent decrease of endotoxin.
These mixtures were then tested on the Charles River MCS at a dilution of 1:2000 after 15 minutes of interaction.
Test samples were prepared as described above, sonicated and vortexed, but were subjected to shelf life or dwell time of 90 min, 5 days, and 1 month prior to contact with endotoxin containing solution (SRW). After dwell time exposure, similarly to the immediate mixing test above, 10 mL SRW was then introduced to the sonicated or vortexed CaSt mixture. It was then vortexed for 5 seconds to fully incorporate the sonicated CaSt. The mixture was then tested after 15 minutes of interaction to measure the percent decrease of endotoxin. These mixtures were then tested on the Charles River MCS at a dilution of 1:2000 after 15 minutes of interaction.
*The 1 month shelf life sample was only tested at 0.04 g CaSt and measured the percent removal after 15 minutes of interaction as well as 30 minutes after interaction.

[3] = Suture testing in ethanol, cyclohexane, isopropanol with 1% CaSt; conditions: for Endotoxin Detected: control suture 68.1 EU
Description: Similarly to the testing above, an absorbable suture of the same type, similarly contaminated, was exposed to CaSt in three solvents (ethanol, cyclohexane, isopropanol). The suture was then tested for LPS. […] In presence of CaSt 1% suspension (CaSt could be slightly soluble in the solvents), LPS activity decreased by 75-95%.
Sutures used were 27 inch long pieces of absorbable lactide-glycolide sutures. Endotoxin sources used were Stagnant Rain Water (SRW) and LRW (3980 EU/mL). 7 strands of suture were placed in tubing with endotoxin solution for 10 minutes at a time. The sutures were dried for 20 minutes and then placed in round bottom tubes. […] 1 suture was placed in each tube and vortexed in this solution for approximately 10 seconds. The sutures were removed and allowed to dry for 20 minutes and then placed in round bottom tubes. This was done for 6 sutures. 1 piece of suture, serving as the control, was not submerged in any solutions and placed in test tubes. 3 mL of LAL reagent water was added to each test tube, vortexed vigorously, and then placed in a hot water bath at 37° C. for 1 hour. They were then removed, vortexed vigorously, diluted, and tested on the MCS system.

[4] = 0.02 g CaSt, Sonicated, 5 Day dwell time
[5] = 0.02 g CaSt, Sonicated, 90 min dwell time
[6] = 0.02 g CaSt, Sonicated, Immediate Mixing
[7] = 0.02 g CaSt, Vortexed, 5 Day dwell time
[8] = 0.02 g CaSt, Vortexed, 90 min dwell time
[9] = 0.04 g CaSt, Sonicated, 1 Month dwell time
[10] = 0.04 g CaSt, Sonicated, 5 Days dwell time
[11] = 0.04 g CaSt, Sonicated, 90 min dwell time
[12] = 0.04 g CaSt, Sonicated, Immediate Mixing
[13] = 0.04 g CaSt, Vortexed, 5 Days dwell time
[14] = 0.04 g CaSt, Vortexed, 90 min dwell time
[15] = 0.04 g CaSt, Vortexed, Immediate Mixing

For Calcium Stearate, the “Endotoxin detected on Pad” value [1] was 1.8 EU, the “Percent Endotoxin detected as compared to Tube 1” value [1] was 20.2% and the “Endotoxin detected on Pad” value ([1]; listed as CaSt) was 2 EU. The “EU After” value ([2]; 0.02 g CaSt in 10 mL LRW, Sonicated, Immediate Mixing with 10 mL SRW, 36,100 EU before) was 8,960 EU and 10,240 EU, the “Average Percent Change” value [2, 4] was 76% and the “Percent Endotoxin Removed” value [2, 4] was 76%. The “EU After” value ([2]; 0.02 g CaSt, Sonicated, 5 Day dwell time, 37,800 EU before) was 9,200 EU, the “Average Percent Change” value [2, 5] was 61% and the “Percent Endotoxin Removed” value [2, 5] was 58% and 64%. The “EU After” value ([2]; 0.02 g CaSt, Sonicated, 90 min dwell time, 36,100 EU before) was 15,120 EU and 12,960 EU, the “Average Percent Change” value [2, 6] was 74% and the “Percent Endotoxin Removed” value [2, 6] was 75% and 72%. For the same substance, the “Average Percent Change” value [2, 7] was 64%, the “Percent Endotoxin Removed” value [2, 7] was 60% and 68% and the “EU After” value ([2]; 0.02 g CaSt, Vortexed, 5 Day dwell time, 37,800 EU before) was 15,120 EU and 12,160 EU. The “Average Percent Change” value [2, 8] was 43%, the “Percent Endotoxin Removed” value [2, 8] was 38% and 47% and the “EU After” value ([2]; 0.02 g CaSt, Vortexed, 90 min dwell time, 36,100 EU before) was 22,400 EU and 19,280 EU. The “Average Percent Change” value ([2]; 0.02 g CaSt, Vortexed, Immediate Mixing) was 32%, the “EU After” value ([2]; 0.02 g CaSt, Vortexed, Immediate Mixing, 36,100 EU before) was 29,200 EU and 20,480 EU and the “EU After” value ([2]; 0.04 g CaSt in 10 mL LRW, Sonicated, Immediate Mixing with 10 mL SRW, 36,100 EU before) was 5,320 EU and 5,800 EU. For the same substance, the “Average Percent Change” value [2, 9] was 50%, the “Percent Endotoxin Removed” value [2, 9] was 49.2% and 50.6% and the “Average Percent Change” value [2, 10] was 85%. For the same substance, the “Percent Endotoxin Removed” value [2, 10] was 87% and 83%, the “Average Percent Change” value [2, 11] was 81% and the “Percent Endotoxin Removed” value [2, 11] was 83% and 78%. The “Average Percent Change” value [2, 12] was 85%, the “Percent Endotoxin Removed” value [2, 12] was 85% and 84% and the “EU After” value ([2]; 0.04 g CaSt, Sonicated, Mixing after 1 Month dwell time, 14,650 EU before) was 7,440 EU and 7,240 EU. For the same substance, the “EU After” value ([2]; 0.04 g CaSt, Sonicated, Mixing after 5 Days dwell time, 37,800 EU before) was 5,040 EU and 6,560 EU, the “EU After” value ([2]; 0.04 g CaSt, Sonicated, Mixing after 90 min dwell time, 36,100 EU before) was 6,168 EU and 8,000 EU and the “Average Percent Change” value [2, 13] was 75%. For the same substance, the “Percent Endotoxin Removed” value [2, 13] was 76% and 74%, the “Average Percent Change” value [2, 14] was 54% and the “Percent Endotoxin Removed” value [2, 14] was 53% and 54%. For the same substance, the “Average Percent Change” value [2, 15] was 44%, the “Percent Endotoxin Removed” value [2, 15] was 45% and 43% and the “EU After” value ([2]; 0.04 g CaSt, Vortexed, Immediate Mixing, 36,100 EU before) was 19,840 EU and 20,480 EU. The “EU After” value ([2]; 0.04 g CaSt, Vortexed, Mixing after 5 Days dwell time, 37,800 EU before) was 9,080 EU and 9,760 EU, the “EU After” value ([2]; 0.04 g CaSt, Vortexed, Mixing after 90 min dwell time, 36,100 EU before) was 17,120 EU and 16,460 EU and the “LPS activity decreased by” value ([3]; CaSt 1% suspension in ethanol, cyclohexane, isopropanol) was 75-95%. For the same substance, the “Change in Endotoxin Level” value ([3]; suture in Cyclohexane w/1% Calcium Stearate (0.0858 g) vs. control suture) was −94.1%, the Endotoxin Detected ([3]; suture in Cyclohexane w/1% Calcium Stearate (0.0858 g)) was 4.02 EU and the “Change in Endotoxin Level” value ([3]; suture in Ethanol w/1% Calcium Stearate (0.0827 g) vs. control suture) was −77.9%. The Endotoxin Detected ([3]; suture in Ethanol w/1% Calcium Stearate (0.0827 g)) was 15.06 EU, the “Change in Endotoxin Level” value ([3]; suture in Isopropanol w/1% Calcium Stearate (0.0841 g) vs. control suture) was −75.6% and the Endotoxin Detected ([3]; suture in Isopropanol w/1% Calcium Stearate (0.0841 g)) was 16.59 EU.
